Results: patent US9757360B2, “Pharmaceutical composition comprising a ryanodine receptor antagonist for facilitating wound healing” (SZEGEDI TUDOMÁNYEGYETEM, priority 2013, dated 2017)

Columns and labels:
[1] = system: full-thickness dermal wound; test: Histology of excised wounds (epithelialization zone, dermal regeneration); assay type: in vivo, SKH-1 hairless mice; conditions: day 4; 100 μM topical once a day
Experimental: (§1) The experiments were performed on male SKH-1 hairless mice of our own rearing (body weight: 36-44 g). Procedures and protocols were approved by the competent authorities (license number: V./145/2013.). Only healthy animals free of any type of injury were used, mice with any sign of disorders were discarded. Prior to the interventions the animals were anesthetized with a mixture of ketamine (Sigma) (90 mg/kg) and xylazine (Sigma) (25 mg/kg) administered intraperitoneally. A skin fold was formed in the dorsal region and was fixed with two symmetrical, fenestrated titanium plates (IROLA GmbH, Schonach, Germany) according to the description of Sorg et al. (Sorg et al., 2007).
In the midline of the dorsal region two holding stitches were placed in order to form a skin fold. This skin fold was sandwiched by two symmetrical, fenestrated titanium plates. The plates were fixed with sutures, bolts and nuts. […]
Histology. […] Zone of epithelialization was defined as the extension of epithelial regeneration measured from the wound edges and given as percentage relative to the initial diameter of the wound. Dermal regeneration was determined, too (thickness of dermal connective tissue was measured within the wound area and was given as percentage relative to that of determined in the intact skin). […]

[2] = system: blood flow of the wound area; test: Laser-Doppler flowmetry of the wound area; assay type: in vivo, SKH-1 hairless mice; conditions: day 1 after wound creation; 200 μL dantrolene solution, measured 10 minutes later; 11 mm wound
Experimental: as §1
(§2) In the midline of the dorsal region two holding stitches were placed in order to form a skin fold. This skin fold was sandwiched by two symmetrical, fenestrated titanium plates. The plates were fixed with sutures, bolts and nuts. On one side of the skin fold, a circular full-thickness wound was made by removing the tissue down to muscle layer of the other side (the diameter of the wound was 4 mm while those of used for Laser-Doppler flowmetry came to 11 mm). The wound was covered with a glass coverslip incorporated into the window of the titanium frame. The glass was removed for the duration of treatments and measurements only. […]

[3] = system: epidermal barrier function; conditions: cited from earlier work
[4] = system: full-thickness dermal wound; test: Macroscopic wound closure of full-thickness dermal wounds in a dorsal skin fold chamber (photo documentation); assay type: in vivo, SKH-1 hairless mice; conditions: for Rate of wound closure vs control group: 100 μM topical once a day
Source text: In our experiments, we have studied the effects of dantrolene on different parameters of wound healing. SKH-1 hairless male mice were used in the experiments. Full-thickness wound was made in a dorsal skin fold. The effects of dantrolene or saline (control group) on wound healing were monitored by means of photo documentation, intravital videomicroscopy (IVM) and laser Doppler flowmetry. The experimental setup was in accordance with the model described by Sorg et al. (Sorg et al., 2007). Wounds were treated daily either with dantrolene or with saline.
as §1, §2
Macroscopic wound closure. […] The images were evaluated with a software developed by our working group (DermAssess©). […]

[5] = system: microcirculation of the wound edges; test: Intravital videomicroscopy (IVM) of the microcirculation of the wound edges; assay type: in vivo, SKH-1 hairless mice; conditions: 100 μM topical once a day
Experimental: as §1
In the midline of the dorsal region two holding stitches were placed in order to form a skin fold. This skin fold was sandwiched by two symmetrical, fenestrated titanium plates. The plates were fixed with sutures, bolts and nuts. On one side of the skin fold, a circular full-thickness wound was made by removing the tissue down to muscle layer of the other side (the diameter of the wound was 4 mm while those of used for Laser-Doppler flowmetry came to 11 mm). The wound was covered with a glass coverslip incorporated into the window of the titanium frame. The glass was removed for the duration of treatments and measurements only. In the control group (n=6), the wounds were treated with 100 μL of sterile saline once a day while in the dantrolene-treated group (n=6) 100 μL of a solution containing the sodium salt of dantrolene (100 μM) was applied to the wound once a day (the salt was dissolved in sterile saline). The observation period took 20 days (according to our previous results this is the time period needed for approximately 100% closure of wounds of 4 mm).
Intravital videomicroscopy (IVM). Microcirculation of the wound edges was monitored by means of IVM on days 4, 8 and 12. After anesthesia, 80 μL of a solution of fluorescein-isothyocyanate (FITC) labeled dextrane (2%) and also 80 μL of a solution of rhodamine-6G was administered retrobulbar. These contrast materials allow us to visualize microcirculation and leukocyte-endothelial interactions at the appropriate wavelengths. Video records of the microcirculation were evaluated off-line with Pictron IVM software. Red blood cell velocity (RBCV) was determined in the capillaries, the diameter of each vessel in the evaluated fields-of-view was measured (only diameters above 6 μm were considered) and sticking leukocytes were counted in the postcapillary venules (this parameter is relative to the area of the vessel wall and is given as cell/μm2).
Control- and dantrolene-treated groups were compared with the Mann-Whitney test and p<0.05 was considered statistically significant.

O=C1CN(/N=C/c2ccc(-c3ccc([N+](=O)[O-])cc3)o2)C(O)=N1 [dantrolene]
Dermal regeneration vs control group [1]: more expressed
Extension of epithelialization zone vs control [1]: more extended
Blood flow in the wound area after vs before dantrolene treatment [2]: significant elevation
Barrier regeneration ([3]; local application, after removal of the uppermost layer of the epidermis): accelerates
Transepidermal water loss ([3]; mice with barrier function impaired after tape stripping of the upper epidermis): ameliorate
Macroscopic wound closure (decrease in wound area relative to baseline) ([4]; by day 20, 100 μL of 100 μM dantrolene sodium salt solution on the wound once a day, 4 mm wound): ~100%
Rate of wound closure vs control group ([4]; day 16): no difference
Rate of wound closure vs control group ([4]; days 4, 8 and 12, p<0.05 vs saline control): significantly higher
Number of sticking leukocytes in the postcapillary venules, difference vs control ([5]; day 12): not statistically significant
Vessel diameters at the wound edges vs control group ([5]; days 4, 8 and 12 (corresponding times)): considerably higher
Red blood cell velocity (RBCV) in the capillaries vs control group ([5]; days 4, 8 and 12): higher
Number of sticking leukocytes in the postcapillary venules vs control ([5]; days 4 and 8): significantly decreased
